Data: patent publication US8835467B2, “SIR2 regulation” (Albert Einstein College of Medicine of Yeshiva University, priority 2003, dated 2014)

Key:
[1] = biological target: T1, Yeast SIR2p (Saccharomyces cerevisiae, UniProt P06700); assay: SIR2 nicotinamide base-exchange assay (p53 peptide, HPLC/14C); assay type: biochemical; conditions: pH 7.6; read-out: Inhibition of exchange rate (%) yeast
T1 construct: made in house
Experimental: (§1) After 2 hours, aliquots of 10 μL removed at 0, 30, 60, 90 and 120 min. Each aliquot was combined with 50 μL 50 mM ammonium acetate pH 5.0 to quench and assayed by HPLC for deacetylation products and NAD^+. The chromatograms (260 nm) were obtained using 50 mM ammonium acetate pH 5.0 as eluant on a semi-preparative Waters C-18 column (2.0 mL/min flow rate). Peaks for ADPR and 3′-O-Acetyl-ADPR were quantified by integration. The peak for NAD^+ was collected and radiation counted.

[2] = biological target: T2, Bacterial SIR2Af2 (Archaeoglobus fulgidus, UniProt O30124); assay: SIR2 deacetylation assay (p53 peptide, HPLC of ADPR and 3′-O-acetyl-ADPR); assay type: biochemical, Archeaglobus fulgidus
T2 construct: made in house
T2 sequence (O30124 1-253): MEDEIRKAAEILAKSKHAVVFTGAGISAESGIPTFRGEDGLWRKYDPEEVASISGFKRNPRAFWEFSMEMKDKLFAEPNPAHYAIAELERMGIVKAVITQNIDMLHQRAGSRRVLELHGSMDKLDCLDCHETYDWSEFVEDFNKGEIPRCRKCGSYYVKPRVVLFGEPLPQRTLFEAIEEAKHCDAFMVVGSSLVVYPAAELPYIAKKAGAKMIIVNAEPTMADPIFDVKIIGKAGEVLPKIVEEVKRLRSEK
Experimental: as §1, with “counted. […] Plots of deacetylation rate versus nicotinamide were fit to the equations described in the text.” for “counted.”
Reactions were as above but base reactions contained 5 mM of pyrazinamide, isonicotinamide, thionicotinamide, or benzamide. Reactions were carried out (2 hours for AF2 and yeast enzymes and 3 hours for mouse enzyme) at 37° C. and quenched by addition of 80 μL 50 mM ammonium acetate pH 5.0. Product formation was quantified by HPLC. Thionicotinamide-NAD^+ was synthesized by CD38. Rates were compared with controls lacking added base.

[3] = biological target: Yeast Sir2 (Saccharomyces cerevisiae, UniProt P06700); assay: Sir2 catalyzed deacetylation of H4 N-terminal peptide; assay type: biochemical
Experimental: Measurements were performed by methods described in Sauve and Schramm (2003) with the H4N-terminal peptide (AGG(AcK)GG(AcK)GMG(AcK)VGA(AcK)RHSC) (Imai et al., 2000) as substrate.

[4] = tested on: Sir2-dependent transcriptional silencing at telomeres; assay: Telomeric reporter gene silencing, serial dilution spot assay; assay type: cell-based, yeast
Experimental: (§2) The photographs were taken after 2 to 3 days incubation. […] Isogenic strains UCC4562 (DOT1) and UCC4554 (dot1Δ) (Singer et al., 1998) are shown in each panel (top and bottom rows, respectively). […] The phenotype of strain CCFY10028 (top row) is compared to an isogenic sir2 derivative (bottom row). The sir2 deletion strain was generated by PCR-mediated gene disruption using a Nat-MX selectable marker (Tong et al., 2004).
(§3) The deletion strains were generated by PCR-mediated gene disruption using a Nat-MX selectable marker (Tong et al., 2004). Silencing at TEL-VR::URA3 is reported by survival on FOA-containing media and at HMR::TRP1 is detected by reduced growth on media lacking tryptophan.
We examined the effect of isonicotinamide on the expression of reporter genes integrated at each of the chromosomal loci that are subject to Sir2-dependent transcriptional silencing. Silencing of a telomeric URA3 gene (TEL-VIIL-URA3) confers resistance to 5-fluoroorotic acid (5-FOA). […] In this strain, silencing is reduced by dispersion of the Sir proteins from the telomeres (van Leeuwen et al., 2002).

[5] = tested on: Sir2-dependent transcriptional silencing at the silent mating-type loci (HMR, HML); assay: Silent mating-type locus reporter silencing, spot assay; assay type: cell-based, yeast
Experimental: as §2, §3
The effect of isonicotinamide on Sir2 activity at the silent mating-type loci was measured in an HMR: TRP1 strain by growth on medium lacking tryptophan (FIG. 8b). Silencing of TRP1 decreases growth on Trp^− media.

Chain of Yeast Sir2 (P06700 whole entry): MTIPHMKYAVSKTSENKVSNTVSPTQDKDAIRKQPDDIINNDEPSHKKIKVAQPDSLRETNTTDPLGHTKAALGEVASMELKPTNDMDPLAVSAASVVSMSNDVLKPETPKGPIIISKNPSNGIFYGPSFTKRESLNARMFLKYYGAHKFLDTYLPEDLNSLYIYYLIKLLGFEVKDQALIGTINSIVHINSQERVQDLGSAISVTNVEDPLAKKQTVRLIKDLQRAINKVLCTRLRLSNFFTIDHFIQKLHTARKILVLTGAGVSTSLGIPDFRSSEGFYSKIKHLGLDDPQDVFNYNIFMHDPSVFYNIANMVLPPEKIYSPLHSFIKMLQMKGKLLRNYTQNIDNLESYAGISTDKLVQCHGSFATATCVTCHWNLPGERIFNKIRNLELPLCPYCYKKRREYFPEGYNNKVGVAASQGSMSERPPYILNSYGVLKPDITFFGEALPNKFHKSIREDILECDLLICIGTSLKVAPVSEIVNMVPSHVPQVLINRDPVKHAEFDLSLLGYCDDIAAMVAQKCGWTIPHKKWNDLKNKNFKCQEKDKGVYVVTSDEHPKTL
T1 sequence (P06700 whole entry): as above

NC(=O)c1ccncc1 [Isonicotinamide]
inhibition at 42000 µM [1]: 40% | inhibition at 5000 µM [2]: 4% | increase of deacetylation activity ([3]; 125 μM [carbonyl-14C]nicotinamide, increasing isonicotinamide): ≤ 45% | effect on rates of deacetylation ([3]; isonicotinamide to 100 mM, absence of nicotinamide): do not substantially affect rates of deacetylation | increase in colony growth on FOA-containing medium ([4]; TEL-VIIL-URA3, DOT1 strain UCC4562, 25 mM isonicotinamide): ~10 fold | enhanced silencing of telomeric reporter (growth on FOA) ([4]; TEL-VIIL-URA3, dot1Δ strain UCC4554, 25 mM isonicotinamide): > 10^3 fold | growth phenotype on FOA medium ([4]; TEL-VIIL-URA3, 25 mM isonicotinamide added to medium with 5 mM nicotinamide): intermediate growth phenotype | increase in colony growth on FOA-containing medium ([4]; TEL-VR-URA3, pnc1Δ strain, 25 mM isonicotinamide): > 10^4 fold | colony survival on non-selective medium ([4]; YPD control medium, 25 mM isonicotinamide): no effect | silencing of ADE2 integrated at TEL-VR ([4]; data not shown): increased | effect on telomeric reporter gene ([4]; npt1Δ strain, 25 mM isonicotinamide): enhances the expression of a telomeric reporter gene | Sir2 activity at HML ([5]; HML::URA3 strains UCC3515 and UCC4574, FOA-containing medium, data not shown): increased Sir2 activity at HML | growth phenotype of isogenic sir2Δ strain ([5]; HMR::TRP1, Trp− medium): Neither compound altered the growth phenotype | reduction in growth on Trp− medium ([5]; HMR::TRP1, pnc1Δ strain, 25 mM isonicotinamide): 10^3 fold
